# Experimental data published in ChEMBL document CHEMBL3639359, “Compounds as cannabinoid receptor ligands” (2014).
# Assays:
# Cannabinoid receptor 2 [1] = target: T1, Cannabinoid receptor 2 (Rattus norvegicus, UniProt Q9QZN9); assay: Radioligand Binding Assay: HEK293 cells stably expressing rat CB2 receptors were grown until a confluent monolayer was formed. Briefly, the cells were harvested and homogenized in TE buffer (50 mM Tris-HCl, 1 mM MgCl2, and 1 mM EDTA) using a polytron for 2x 10 second bursts in the presence of protease inhibitors, followed by centrifugation at 45,000x g for 20 minutes. The final membrane pellet was re-homogenized in storage buffer (50 mM Tris-HCl, 1 mM MgCl2, and 1 mM EDTA and 10% sucrose) and frozen at -78 C. until used. Saturation binding reactions were initiated by the addition of membrane preparation (protein concentration of 20 ug/well for rat CB2) into wells of a deep well plate containing [3H]CP 55,940 (120 Ci/mmol, a nonselective CB agonist commercially available from Tocris) in assay buffer (50 mM Tris, 2.5 mM EDTA, 5 mM MgCl2, and 0.5 mg/mL fatty acid free BSA, pH 7.4). After 45 min incubation at 30u C., binding reaction was terminated by the addition of 300 ul/well of cold assay buffer.; assay type: cell membranes
# T1 sequence (Q9QZN9 whole entry): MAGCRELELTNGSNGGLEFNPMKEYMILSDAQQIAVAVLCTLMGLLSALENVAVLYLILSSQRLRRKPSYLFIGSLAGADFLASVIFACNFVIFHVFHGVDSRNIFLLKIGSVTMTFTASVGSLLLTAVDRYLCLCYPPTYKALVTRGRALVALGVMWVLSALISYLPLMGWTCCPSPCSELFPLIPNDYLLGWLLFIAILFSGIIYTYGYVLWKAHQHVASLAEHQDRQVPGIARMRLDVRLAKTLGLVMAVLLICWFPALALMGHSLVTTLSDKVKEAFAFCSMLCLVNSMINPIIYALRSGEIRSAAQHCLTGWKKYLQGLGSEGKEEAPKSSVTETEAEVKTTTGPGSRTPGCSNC
# Cannabinoid receptor 2 [2] = target: Cannabinoid receptor 2 (Homo sapiens, UniProt P34972); assay: Radioligand Binding Assay: HEK293 cells stably expressing human CB2 receptors were grown until a confluent monolayer was formed. Briefly, the cells were harvested and homogenized in TE buffer (50 mM Tris-HCl, 1 mM MgCl2, and 1 mM EDTA) using a polytron for 2x 10 second bursts in the presence of protease inhibitors, followed by centrifugation at 45,000xg for 20 minutes. The final membrane pellet was re-homogenized in storage buffer (50 mM Tris-HCl, 1 mM MgCl2, and 1 mM EDTA and 10% sucrose) and frozen at -78 C. until used. Saturation binding reactions were initiated by the addition of membrane preparation (protein concentration of 5 ug/well for human CB2) into wells of a deep well plate containing [3H]CP 55,940 (120 Ci/mmol, a nonselective CB agonist commercially available from Tocris) in assay buffer (50 mM Tris, 2.5 mM EDTA, 5 mM MgCl2, and 0.5 mg/mL fatty acid free BSA, pH 7.4). After 90 min incubation at 30 C., binding reaction was terminated by the addition of 300 uL/well of cold assay buffer.; assay type: cell membranes
# Cannabinoid receptor 2 (Homo sapiens, UniProt P34972), sequence (P34972 whole entry): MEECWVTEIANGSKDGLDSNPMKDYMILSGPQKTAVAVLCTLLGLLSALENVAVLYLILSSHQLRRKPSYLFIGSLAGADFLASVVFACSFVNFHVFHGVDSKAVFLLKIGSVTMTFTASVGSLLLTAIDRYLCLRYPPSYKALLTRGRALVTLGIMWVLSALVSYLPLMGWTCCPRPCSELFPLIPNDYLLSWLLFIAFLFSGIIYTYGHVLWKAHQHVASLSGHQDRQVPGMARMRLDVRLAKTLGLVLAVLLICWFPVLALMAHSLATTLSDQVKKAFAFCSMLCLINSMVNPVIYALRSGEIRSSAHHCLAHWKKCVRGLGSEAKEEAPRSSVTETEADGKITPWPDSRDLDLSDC
compound,measurement,setting,value
CCCCn1nc(C(C)(C)C)s/c1=N\C(=O)c1cc(C(F)(F)F)ccc1ON=C(C)C,Ki,Cannabinoid receptor 2 [1],5.2 nM
same,Ki,Cannabinoid receptor 2 [2],12 nM
